Measurements reported in paper PMC11653243, “Enhancing Phototoxicity in BODIPY‐Perylene Charge Transfer Dyads by Combined Iodination and Mesylation” (Chemistry (Weinheim an Der Bergstrasse, Germany), 2024).
Where “and” joins values, the source holds several entries; their conditions need not be identical. Equal entries are not always repeated. Where two headings read alike, the source gives them in different places.

Assays:
[1] = parameters: method as in PMID 36802283; conditions: cited from earlier work
CHO cells = test: Dark toxicity, 24 h, alamar blue assay; type: cell-based, Chinese Hamster; conditions: Cricetulus griseus, light or radiation study, without irradiation, 24 h in the dark at 37 °C
Method: (§1) Typical of many BODIPY derivatives, the BODIPY's presented in this work are insoluble in aqueous media, including PBS, and thus the main stock solutions (2–3 mM) were prepared in 100 % DMSO and diluted in media immediately before treating the cells. The maximum concentration for dark toxicity was set at 50 μM to keep the concentration of DMSO ≤1 % (v/v) to maintain cell health. As a result, it was not possible to determine an exact dark IC50 value as concentrations above 50 μM demanded DMSO concentrations that would affect the viability of the cells. Dietzek‐Ivanšić et al previously reported on the effect of DMSO on MCF‐7 cell viability, where cell viability remained high (95 %) in cells treated with 1 % DMSO in cell culture media for 24 h, whereas only 40 % of cells remained viable after treatment with 3.8 % DMSO. Working stocks in cell culture media remained stable within the incubation times used for cellular studies i. e. up to 24 h.[25]
(§2) Dark‐ and photo‐toxicity studies were performed by seeding CHO and MCF‐7 cells in clear 96‐well plates (Nunc) and treating with varying concentrations of B2P, MB2P, B2PI and MB2PI. Phototoxicity experiments were carried out using a 470 nm LED. For hypoxic phototoxicity studies, hypoxia was mimicked by adding CoCl2 to the cells prior to irradiation. Cell viability was determined using the alamar blue assay and absorbance measured with a BMG LABTECH CLARIOstar plate reader. […]
(§3) For 24 h dark toxicity studies, 50, 10, 5 and 1 µM stock concentrations of B2P, B2PI, MB2P and MB2PI were prepared in media to a final DMSO concentration of ≤1%. 100 µL of each concentration was added to the wells in triplicate and the plates incubated for 24 h in the dark at 37°C. Cell viability of all plate-based studies was assessed using the alamar blue assay. A 10% Resazurin-media solution (alamarBlue, Invitrogen) was added to the wells and incubated for 5 h in the absence of light. Absorbance was measured using a BMG LABTECH CLARIOstar plate reader at 570 nm and 600 nm (corrected for background subtraction). Cell viability is presented as a percentage (%) compared to untreated control wells. Plates were performed in triplicate. […]

MCF‐7 cells = test: Dark toxicity, 24 h, alamar blue assay; type: cell-based; conditions: Homo sapiens, MCF7, light or radiation study, without irradiation, 24 h in the dark at 37 °C
Method: as §1, §2, §3

MCF‐7 spheroids = test: Spheroid dark toxicity, CellTiter-Glo 3D; type: cell-based; conditions: Homo sapiens, MCF7, light or radiation study; MCF‐7 3D (spheroids); without irradiation
Method: 3D Cell Studies: Toxicity Assays
Spheroids were seeded in a clear BIOFLOAT™ round bottom 96 well plate (Sarstedt) at 2x10^4 cells per well, centrifuged using the […] for 5 minutes at 700 rpm and allowed to grow and compact for 96 hours. A 2X concentrated solution of B2P, B2PI, MB2P or MB2PI was added in a 1:1 ratio (BODIPY:media) to each well of the 96 well plate, which contained 50 µL phenol red free media, and incubated for 24 h. Prior to irradiation 90% of the media/Ru solution was removed, replaced with fresh phenol red media to dilute the remaining BODIPY (multiple dilution steps, more required for 15 µM and above), and brought to a total volume of 100 µL. Phototoxicity studies in […] spheroids were performed as per the cell monolayer protocol with an irradiation dose of 5 J/cm2 using a 470 nm LED.
Control studies with untreated spheroids confirmed 17 J/cm2 irradiation dose was toxic to spheroids, however the spheroids remained viable after 5 J/cm2 irradiation. CellTiter-Glo 3D cell viability assay (Promega) was used to assess spheroid viability and performed as per the manufacturer’s protocol, where the CellTiter-Glo 3D reagent was added to the spheroid wells

[2] = Photophysical properties (absorption, emission, quantum yield, lifetime) in solvents; type: physicochemical; conditions: for Φf: absolute quantum yield, integrating sphere; for τave: intensity weighted average lifetime; for kr: kr=ΦF/τave; for emission intensity from water relative to emission intensity from toluene: matched absorption, water with 10 % DMSO
Text: The absorption and emission spectra of MB2P and MB2PI are shown in Figure 3, in a range of solvents across polarities. […] The absorption maxima is largely unaffected by solvent, similar to B2P/B2PI. The extinction coefficient is also modestly affected for MB2P but does vary with solvent for MB2PI, although the change is not correlated with solvent polarity. All compounds also show characteristic perylene absorption features between 400 and 430 nm. Also consistent with this previous study, the emission spectra are strongly solvent dependent. Intensely emissive from non‐polar media, MB2P and MB2PI are minimally emissive in polar (ethanol and DMSO) and aqueous media, (with 10 % DMSO for solubilisation). For example, under matched absorption conditions used to generate Figure 3, the emission intensity from water was 0.13 % (MB2P) and 1.6 % (MB2PI) of the emission intensity from toluene (see Figure S20).
Figure 3 Right, Absorption spectra of (A) MB2P and (B) MB2PI in different solvents at 10 μM, and, left, their respective emission. Excitation wavelength 532 nm, data recorded with 2.5–2.5 nm slit widths.

CC1=C(I)C(C)=[N+]2C1=C(c1ccccc1)c1c(C)c(-c3ccc4c5cccc6cccc(c7cccc3c74)c65)c(C)n1[B-]2(F)F [B2PI]
Mol. Bright ([1]; Dioxane): 2028 | Stokes Shift ([1]; Dioxane): 3232 cm⁻¹ | knr ([1]; Dioxane): 68 10^7 s^−1 | kr ([1]; Dioxane): 1.8 10^7 s^−1 | Φf ([1]; Dioxane): 0.03 | λabs ([1]; Dioxane): 531 nm | λem ([1]; Dioxane): 641 nm | τave ([1]; Dioxane): 1.4±0.01 ns | ϵ ([1]; Dioxane): 67600 M⁻¹ cm⁻¹ | Amp of τ1 ([1]; Toluene): 7.2% | Amp of τ2 ([1]; Toluene): 92.8% | Mol. Bright ([1]; Toluene): 1899 | Stokes Shift ([1]; Toluene): 3003 cm⁻¹ | knr ([1]; Toluene): 32 10^7 s^−1 | kr ([1]; Toluene): 8.5 10^7 s^−1 | Φf ([1]; Toluene): 0.03 | λabs ([1]; Toluene): 534 nm | λem ([1]; Toluene): 636 nm | τ1 ([1]; Toluene): 2.9±0.1 ns | τ2 ([1]; Toluene): 0.7±0.01 ns | τave ([1]; Toluene): 1.2±0.0 ns | ϵ ([1]; Toluene): 63300 M⁻¹ cm⁻¹ | IC50 (CHO cells): > 50 µM | IC50 (MCF‐7 cells): > 50 µM | IC50 (MCF‐7 spheroids): 44 ± 3.84 µM

CC1=CC(C)=[N+]2C1=C(c1ccccc1)c1c(C)c(-c3ccc4c5cccc6cccc(c7cccc3c74)c65)c(C)n1[B-]2(F)F [B2P]
Amp of τ1 ([1]; Dioxane): 5.3% | Amp of τ2 ([1]; Dioxane): 94.7% | Mol. Bright ([1]; Dioxane): 6588 | Stokes Shift ([1]; Dioxane): 3417 cm⁻¹ | knr ([1]; Dioxane): 44 10^7 s^−1 | kr ([1]; Dioxane): 4.6 10^7 s^−1 | Φf ([1]; Dioxane): 0.09 | λabs ([1]; Dioxane): 515 nm | λem ([1]; Dioxane): 625 nm | τ1 ([1]; Dioxane): 4.1±0.2 ns | τ2 ([1]; Dioxane): 1.8±0.0 ns | τave ([1]; Dioxane): 2.0±0.0 ns | ϵ ([1]; Dioxane): 73200 M⁻¹ cm⁻¹ | Mol. Bright ([1]; Toluene): 16884 | Stokes Shift ([1]; Toluene): 3071 cm⁻¹ | knr ([1]; Toluene): 79 10^7 s^−1 | kr ([1]; Toluene): 2.6 10^7 s^−1 | Φf ([1]; Toluene): 0.21 | λabs ([1]; Toluene): 518 nm | λem ([1]; Toluene): 616 nm | τ1 ([1]; Toluene): 2.5±0.0 ns | τave ([1]; Toluene): 2.5±0.01 ns | ϵ ([1]; Toluene): 80400 M⁻¹ cm⁻¹ | IC50 (CHO cells): > 50 µM | IC50 (MCF‐7 cells): > 50 µM | IC50 (MCF‐7 spheroids): 46 ± 2.38 µM

CC1=C(c2ccc3c4cccc5cccc(c6cccc2c63)c54)C(C)=[N+]2C1=C(c1c(C)cc(C)cc1C)c1c(C)c(I)c(C)n1[B-]2(F)F [MB2PI]
IC50 (CHO cells): > 50 µM | IC50 (MCF‐7 cells): > 50 µM | Amp of τ1 ([2]; Dioxane): 2.5% | Amp of τ2 ([2]; Dioxane): 97.5% | Mol. Bright ([2]; Dioxane): 4374 | Stokes Shift ([2]; Dioxane): 3049 cm⁻¹ | knr ([2]; Dioxane): 85 10^7 s^−1 | λabs ([2]; Dioxane): ~532 nm | λem ([2]; Dioxane): 635 nm | τ1 ([2]; Dioxane): 4.0±0.1 ns | τ2 ([2]; Dioxane): 0.7 ns and 0.7±0.01 ns | ϵ ([2]; Dioxane): 72900 M⁻¹ cm⁻¹ | Φf ([2]; Dioxane): 0.06 | τave ([2]; Dioxane): 1.1±0.0 ns | kr ([2]; Dioxane): 5.73 10^7 s^−1 | Amp of τ1 ([2]; Toluene): 5.6% | Amp of τ2 ([2]; Toluene): 94.4% | Mol. Bright ([2]; Toluene): 6534 | Stokes Shift ([2]; Toluene): 2854 cm⁻¹ | knr ([2]; Toluene): 114 10^7 s^−1 | λabs ([2]; Toluene): 534 nm | λem ([2]; Toluene): 630 nm | τ1 ([2]; Toluene): 1.6±0.1 ns | τ2 ([2]; Toluene): 0.7 ns and 0.7±0.01 ns | ϵ ([2]; Toluene): 72600 M⁻¹ cm⁻¹ | Φf ([2]; Toluene): 0.09 | τave ([2]; Toluene): 0.8±0.0 ns | kr ([2]; Toluene): 11.2 10^7 s^−1 | emission intensity from water relative to emission intensity from toluene [2]: 1.6% | IC50 (MCF‐7 spheroids): > 50 µM

CC1=C(c2ccc3c4cccc5cccc(c6cccc2c63)c54)C(C)=[N+]2C1=C(c1c(C)cc(C)cc1C)c1c(C)cc(C)n1[B-]2(F)F [MB2P]
IC50 (CHO cells): > 50 µM | IC50 (MCF‐7 cells): > 50 µM | Mol. Bright ([2]; Dioxane): 20516 | Stokes Shift ([2]; Dioxane): 3131 cm⁻¹ | knr ([2]; Dioxane): 25 10^7 s^−1 | λem ([2]; Dioxane): 614 nm | τ1 ([2]; Dioxane): 3.1±0.1 ns | ϵ ([2]; Dioxane): 89200 M⁻¹ cm⁻¹ | Φf ([2]; Dioxane): 0.23 | τave ([2]; Dioxane): 3.1±0.1 ns | kr ([2]; Dioxane): 7.4 10^7 s^−1 | Mol. Bright ([2]; Toluene): 32148 | Stokes Shift ([2]; Toluene): 3002 cm⁻¹ | knr ([2]; Toluene): 23 10^7 s^−1 | λabs ([2]; Toluene): 517 nm | λem ([2]; Toluene): 612 nm | τ1 ([2]; Toluene): 2.8±0.0 ns | ϵ ([2]; Toluene): 89300 M⁻¹ cm⁻¹ | Φf ([2]; Toluene): 0.36 | τave ([2]; Toluene): 2.8±0.0 ns | kr ([2]; Toluene): 12.9 10^7 s^−1 | emission intensity from water relative to emission intensity from toluene [2]: 0.13% | IC50 (MCF‐7 spheroids): > 50 µM
